Square brackets hold non-standard residues; d marks the D form. Ends that are not written are not given here. Peptide text beside a SMILES is read from it.
How the values were obtained:
[1] = test system: MRSA strains (S. aureus COL); assay: MIC, synergistic activity with Ertapenem (4 μg/ml); type: cell-based, Staphylococcus aureus; settings: S. aureus COL, synergistic activity with 4 μg/ml Ertapenem
Description: (§1) Minimum inhibition concentrations (MICs) were determined against Escherichia coli (ATCC 25922), Staphylococcus aureus (ATCC 25923), Klebsiella pneumoniae (ATCC 10031) and Pseudomonas aeruginosa (ATCC 27853). Also clinical strains of E. coli, K. pneumoniae, E. cloacae, P. aeruginosa, Serratia marcescens, Proteus mirabilis, S. pneumoniae, Acinetobacter baumannii, A. johnsonii and S. aureus were used for MICs assays. Additionally, clinical strains of yeast including Candida albicans, C. glabrata, C. parapsilosis and C. quillermondiae were used. The susceptibility of these microorganisms to Chain peptides were determined using micro broth dilution assay. Colonies of the respective microorganism from Muller Hinton (MH) agar plates incubated overnight were suspended in MH broth media and final concentration of microorganism was adjusted to 5.0×10^5 cfu/ml. An aliquot of 10 μl of each Chain peptide, or gentamicin, tetracycline as reference antibiotics were added in differing concentrations along with 90 μl of bacterial suspension to 96 well polypropylene plates and incubated at 37° C. for 20 to 24 hours. Concentrations of Chain peptides and reference antibiotics ranged from 0.125 to 128 μg/ml and the MICs were recorded as the lowest concentration with no visual growth of bacteria. Similarly, antifungal MICs were tested in Potato dextrose broth.
(§2) Peptides Chain 104, Chain 105, Chain 201, Chain 308, Chain 310 were tested against antibiotic-sensitive strains of S. aureus RN4220 and methicillin resistant strains of S. aureus COL (MRSA). Chain peptides comprising of either L- or D-form amino acids were tested against these bacteria, and the D-form peptides were found have better activity compared to L-form (Table 6). Synergistic activity of chain peptides along with Ertapenem (4 μg/ml) was tested to know whether it will influence the activity against MRSA strains. […] Chain 310 has the best antibacterial activity against the MRSA strains with a MIC of 0.06 & 0.03 μg/ml along with Ertapenem (4 μg/ml) for both forms of L and D-peptides (Table 6).

S. aureus RN4220 = type: cell-based, Staphylococcus aureus; settings: antibiotic sensitive strain S. aureus RN4220
Description: as §1, §2

S. aureus COL (MRSA) = type: cell-based, Staphylococcus aureus
Description: as §1, §2

human erythrocytes = type: cell-based
Description: In hemolysis assays, the ability of peptides at 128 μg/ml concentration to lyse human erythrocytes to release hemoglobin was measured. The peptides described here preferably have low hemolytic activity (0.2 to 3.8% hemolysis) in mammal body. […] These peptides are useful as antimicrobial drugs as they show little or no side effects at concentrations needed to kill bacteria.
Minimum inhibition concentrations (MICs) were tested by microbroth dilution method and Chain 104, 105 and 109 inhibited the growth of Escherichia coli (ATCC 25922), Staphylococcus aureus (ATCC 25923), Klebsiella pneumoniae (ATCC 10031) and Pseudomonas aeruginosa (ATCC 27853) between 1-8 μg/ml respectively (Tables 3a, 3b and 3c). The membranolytic activities of the peptides were tested by measuring the release of hemoglobin from erythrocytes of fresh blood donated by voluntiers. Hemoglobin levels were determined spectrometrically by taking OD at 540 nm by following the protocol of Schmidtchen et al., 2011.

[2] = test system: Staphylococcus aureus (ATCC 25923); assay: microbe, parasite or virus in culture; type: cell-based; settings: ATCC 25923
Description: as §1

[3] = test system: Klebsiella pneumoniae (ATCC 10031); assay: microbe, parasite or virus in culture; type: cell-based; settings: ATCC 10031
Description: as §1

[4] = test system: Pseudomonas aeruginosa (ATCC 27853); assay: microbe, parasite or virus in culture; type: cell-based; settings: ATCC 27853
Description: as §1

[5] = test system: Escherichia coli (ATCC 25922); assay: microbe, parasite or virus in culture; type: cell-based; settings: ATCC 25922
Description: as §1

[6] = up to 45° C. for over 14 days; radial diffusion assay
Description: FIG. 8a. […] Antibacterial activity was tested by aliquoting 20 μg of peptides incubated at different temperature and activity was measured by zone of inhibition. Peptides at −20° C. served as control.
FIG. 8b. Thermostability of the chain peptides 201 (A-D) and 204 (E-H) tested at various temperatures over a period of 14 days by radial diffusion assay. Antibacterial activity was tested by aliquoting 20 μg of peptides incubated at different temperature and activity was measured by zone of inhibition. Peptides at −20° C. served as control.
FIG. 8c. Thermostability of the chain peptides 306 (A-D) and 308 (E-H) tested at various temperatures over a period of 14 days by radial diffusion assay. Antibacterial activity was tested by aliquoting 20 μg of peptides incubated at different temperature and activity was measured by zone of inhibition. Peptides at −20° C. served as control.
(§3) Thermal stability was evaluated by diluting peptides to the concentration of 2 mg/ml in PBS buffer (pH 7.4) and incubating at different temperatures, such as +4° C., 25° C. (RT), 37° C. and 45° C., peptides stored at −20° C. were used as control. After each time interval, 100 μl (2 mg/ml) of peptides were taken and stored at −20° C. for radial diffusion assay to determine the antibacterial activity (FIG. 8). Peptides were also tested by diluting them at different pH values starting from pH 4 to 9. The effect of NaCl on the antimicrobial activity was tested by adding different concentrations (50, 100 and 200 mM) of NaCl to MH medium and the minimum inhibitory concentrations were tested against 4 ATCC bacterial strains.

[7] = pH 4 to 9; radial diffusion assay
Description: FIG. 9a. pH stability of chain peptides 104 and 105 was determined by radial diffusion assay (RDA). Different pH ranging from 4-9 was used to check the zone of inhibition.
FIG. 9b. pH stability of chain peptides 201 and 204 was determined by radial diffusion assay (RDA). Different pH ranging from 4-9 was used to check the zone of inhibition.
FIG. 9c. pH stability of chain peptides 306 and 308 was determined by radial diffusion assay (RDA). Different pH ranging from 4-9 was used to check the zone of inhibition.
as §3

Compound	Minimum inhibitory concentration (MIC), S. aureus COL + 4 μg/ml Ertapenem [1]	Minimum inhibitory concentration (MIC), S. aureus RN4220 (S. aureus RN4220)	Minimum inhibitory concentration (MIC), S. aureus COL (MRSA) (S. aureus COL (MRSA))	Side effects to humans as tested by hemolysis assay (human erythrocytes)	Minimum inhibitory concentration, Staphylococcus aureus (ATCC 25923) [2]	Minimum inhibitory concentration, Klebsiella pneumoniae (ATCC 10031) [3]	Minimum inhibitory concentration, Pseudomonas aeruginosa (ATCC 27853) [4]	Minimum inhibitory concentration, Escherichia coli (ATCC 25922) [5]	Thermostability (antibacterial activity retained) [6]	pH stability (antibacterial activity retained) [7]
CC(C)C[C@@H](NC(=O)[C@H](N)CCCNC(=N)N)C(=O)N[C@H](CCCCN)C(=O)N[C@H](Cc1c[nH]c2ccccc12)C(=O)N[C@H](Cc1ccccc1)C(=O)N[C@H](CC(C)C)C(=O)N[C@H](CC(C)C)C(=O)N[C@H](Cc1ccccc1)C(=O)N[C@H](CCCNC(=N)N)C(=O)N[C@H](CCCCN)C(=O)N[C@H](CCCNC(=N)N)C(=O)O [308 D] (H-[dR][dL][dK][dW][dF][dL][dL][dF][dR][dK][dR]-OH)	1 µg/mL	4 µg/mL	4 µg/mL	–	–	–	–	–	–	–
CC(C)C[C@@H](NC(=O)[C@@H](CCCCN)NC(=O)[C@@H](CCCCN)NC(=O)[C@@H](Cc1ccccc1)NC(=O)[C@@H](CC(C)C)NC(=O)[C@@H](Cc1c[nH]c2ccccc12)NC(=O)[C@@H](CCCNC(=N)N)NC(=O)[C@@H](Cc1c[nH]c2ccccc12)NC(=O)[C@@H](CCCCN)NC(=O)[C@@H](CCCNC(=N)N)NC(=O)[C@H](N)CCCCN)C(=O)O [310 D] (H-[dK][dR][dK][dW][dR][dW][dL][dF][dK][dK][dL]-OH)	<0.03 µg/mL	>64 µg/mL	>64 µg/mL	–	–	–	–	–	–	–
KRKWRWLFKKL [Chain310]	–	–	–	little side effects	8 µg/mL	16 µg/mL	1 µg/mL	4 µg/mL	–	–
KRKWRWLFKKL [Compound 310]	0.06 µg/mL	>64 µg/mL	>64 µg/mL	–	–	–	–	–	–	–
KWIVWRWRFKR [Chain201]	–	–	–	little side effects	4 µg/mL	8 µg/mL	8 µg/mL	2 µg/mL	not hindered	not hindered
KWIVWRWRFKR [Compound 201]	0.5 µg/mL	64 µg/mL	64 µg/mL	–	–	–	–	–	–	–
RKWRAMIRLHAKRLRK [Chain104]	–	–	–	little side effects	–	–	–	–	not hindered	not hindered
RKWRAMIRLHAKRLRK [Compound 104]	0.25 µg/mL	>64 µg/mL	>64 µg/mL	–	–	–	–	–	–	–
RKWRAMIRLHAKWLRK [Chain105]	–	–	–	little side effects	–	–	–	–	not hindered	not hindered
RKWRAMIRLHAKWLRK [Compound 105]	0.5 µg/mL	>64 µg/mL	>64 µg/mL	–	–	–	–	–	–	–
RLKRWRLFRKR [Chain306]	–	–	–	–	2 µg/mL	>128 µg/mL	64 µg/mL	8 µg/mL	not hindered	not hindered
RLKWFLLFRKR [Chain308]	–	–	–	little side effects	4 µg/mL	4 µg/mL	2 µg/mL	1 µg/mL	not hindered	not hindered
RLKWFLLFRKR [Compound 308]	0.5 µg/mL	>64 µg/mL	>64 µg/mL	–	–	–	–	–	–	–
RLKWFWLFRKR [Chain307]	–	–	–	little side effects	4 µg/mL	16 µg/mL	1 µg/mL	8 µg/mL	–	–
RRLIWRRFKWLR [Chain204]	–	–	–	little side effects	16 µg/mL	32 µg/mL	4 µg/mL	2 µg/mL	not hindered	not hindered
WWRLHAKWKLW [Chain109]	–	–	–	little side effects	–	–	–	–	–	–
